Some test systems named below: SNB-19; ACHN; SF-295; DU-145; SR; UACC-62; SN12C; CAKI-1; OVCAR-8; HCT-15; SNB-75; IGROV-1; NCI-H460; MOLT-4; OVCAR-3; SK-MEL-2; NCI/ADR-RES; TK-10; BT-549.
Holding throughout (assay): DTP human tumour cell line panel, 48 h

The record followed here is ChEMBL document CHEMBL1201862, “PubChem BioAssay data set” (2004).

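Cultured in 96-well plates, cells were exposed to test compound for 48 hours across five concentrations. GI50 is the concentration that inhibits growth by half.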 Activity calls are given as the source filed them. Cut-off read from the data, not from the text of the source: active = GI50 up to about 1.1 µM and inactive = higher. Numbered stars: 1 amine (or outer) side, 2 acyl side, 3 side chain; on linkers, the order of the positions; unused ones are H or OH. Bridge positions count the residues as written; N and C are the ends. Square brackets hold non-standard residues; d marks the D form. Residues, ends and D or L forms follow the SMILES beside them. Peptide text beside a SMILES is read from it. I, II: the chains in the order shown. *: point of attachment. Actinocin(9to1) = Cc1c2oc3c(C)ccc(C(=O)[*:1])c3nc-2c(C(=O)[*:2])c(N)c1=O; NMeH = CN[CH](Cc1c[nH]cn1)C(=O)O; Cbz = O=C(OCc1ccccc1)*; Sar = CNCC(=O)O

The GI50 is the concentration at which growth is held to half of that of the control.

Regarding `CCOC(=O)CCC(NC(=O)OCc1ccccc1)C(=O)NC(CCC(=O)OCC)C(=O)OCC` (configuration not stated) (Cbz-Glu(OEt)-Glu(OEt)-OEt; configuration not given here), the GI50 in the assay on SNB-19, in the assay with ACHN, with SF-295, in the assay on DU-145, in the assay on SR and with UACC-62 was > 100 µM (inactive) in each case. For the same molecule, the GI50 was > 100 µM (inactive) in the assay with SN12C; > 100 µM (inactive) in the assay with CAKI-1; > 100 µM (inactive) with OVCAR-8; above 100 µM with HCT-15; > 100 µM (inactive) in the assay on SNB-75; > 100 µM (inactive) in the assay on IGROV-1. Further, the GI50 in the assay with NCI-H460, in the assay with MOLT-4, in the assay on OVCAR-3, in the assay with SK-MEL-2 and with NCI/ADR-RES was > 100 µM (inactive) each time.

Turning to `C=CCC(CC=O)(C(=O)OCC)C(=O)OCC`, the GI50 in the assay with SNB-19, in the assay with ACHN, in the assay with SF-295, in the assay on DU-145, with SR and with UACC-62 was > 100 µM (inactive) each time. Besides, the GI50 in the assay on SN12C is > 100 µM (inactive); with CAKI-1 it was > 100 µM (inactive); in the assay with OVCAR-8, > 100 µM (inactive); in the assay on HCT-15, above 100 µM; with SNB-75 it was > 100 µM (inactive); in the assay on IGROV-1 it was > 100 µM (inactive). In addition, the GI50 with NCI-H460, in the assay with TK-10, in the assay with MOLT-4, in the assay on OVCAR-3, with SK-MEL-2 and in the assay with NCI/ADR-RES was > 100 µM (inactive) each time.

For the molecule `C#CCOC(=O)C=[N+]=[N-]`, the GI50 in the assay with SNB-19, in the assay on ACHN, with SF-295, in the assay on DU-145, in the assay with SR and in the assay on UACC-62 was > 10 µM (inactive) in each case. Moreover, the GI50 in the assay with SN12C was > 10 µM (inactive); in the assay with BT-549, > 10 µM (inactive); in the assay on OVCAR-8 it was > 10 µM (inactive); with HCT-15, above 10 µM; in the assay with IGROV-1, > 10 µM (inactive); in the assay on NCI-H460, > 10 µM (inactive). In addition, the GI50 with MOLT-4, with OVCAR-3 and in the assay with SK-MEL-2 was > 10 µM (inactive) throughout.

Turning to `Cc1nc(C(N)=S)sc1C(=O)CC(=O)C(=O)Nc1cccc(Cl)c1C`, the GI50 with SNB-19, with ACHN, in the assay on SF-295, with SR, with UACC-62 and in the assay on SN12C was > 100 µM (inactive) in each case. For the same molecule, the GI50 was > 100 µM (inactive) in the assay on CAKI-1; > 100 µM (inactive) in the assay on BT-549; > 100 µM (inactive) with OVCAR-8; above 100 µM in the assay with HCT-15; > 100 µM (inactive) with SNB-75; > 100 µM (inactive) in the assay on IGROV-1. Besides, the GI50 in the assay with NCI-H460, in the assay on TK-10, in the assay with MOLT-4, in the assay with OVCAR-3, with SK-MEL-2 and with NCI/ADR-RES was > 100 µM (inactive) throughout.

For `O=c1[nH]c2ccccc2c2oc(-c3ccccc3)nc12`, the GI50 in the assay with SNB-19 is 26.1 µM (inactive); in the assay on ACHN it was > 100 µM (inactive); in the assay on SF-295, 23.9 µM (inactive); with SR, 15.9 µM (inactive); in the assay on UACC-62 it was 88.3 µM (inactive); in the assay on SN12C it was 16.5 µM (inactive). The GI50 with CAKI-1 was 18.9 µM (inactive); with BT-549 it was 31.2 µM (inactive); in the assay on OVCAR-8, 22.4 µM (inactive); in the assay with HCT-15, above 100 µM; in the assay with SNB-75, 20.2 µM (inactive); in the assay with IGROV-1, > 100 µM (inactive). Moreover, the GI50 in the assay with NCI-H460 was > 100 µM (inactive); in the assay with TK-10, 54.6 µM (inactive); with MOLT-4, 26.6 µM (inactive); with OVCAR-3 it was > 100 µM (inactive); with SK-MEL-2, 24.2 µM (inactive); in the assay with NCI/ADR-RES, > 100 µM (inactive).

Turning to `CN(C)CCCNc1ccnc2cccc([N+](=O)[O-])c12`, the GI50 in the assay on SNB-19 was 19.6 µM (inactive); with ACHN it was 5 µM (inactive); in the assay on SF-295, 13.3 µM (inactive); in the assay with DU-145, 29 µM (inactive); with SR it was > 100 µM (inactive); with SN12C, 15.8 µM (inactive). Moreover, the GI50 in the assay with CAKI-1 is 13.3 µM (inactive); in the assay on BT-549, 21.8 µM (inactive); in the assay on OVCAR-8, 22 µM (inactive); in the assay on HCT-15, 8.41 µM; in the assay with SNB-75, 24.1 µM (inactive); in the assay on IGROV-1, 12.1 µM (inactive). Also, the GI50 with NCI-H460 was 6.5 µM (inactive); with TK-10, 15.7 µM (inactive); in the assay on MOLT-4, > 100 µM (inactive); in the assay on OVCAR-3, 5.22 µM (inactive); in the assay with SK-MEL-2 it was 17.2 µM (inactive).

Turning to `CCOC(=O)c1ccc(Nc2nc3ccccc3nc2-c2cccs2)cc1`, the GI50 in the assay on SNB-19 is > 100 µM (inactive); in the assay with ACHN, 47.8 µM (inactive); with SF-295 it was 49.4 µM (inactive); in the assay with DU-145, > 100 µM (inactive); with SR it was 26.9 µM (inactive); in the assay on UACC-62 it was 4.24 µM (inactive). Moreover, the GI50 with SN12C was 21.2 µM (inactive); in the assay with CAKI-1, 21.9 µM (inactive); in the assay on OVCAR-8, 93.1 µM (inactive); with HCT-15 it was 25.3 µM; in the assay on SNB-75 it was 16.8 µM (inactive); with IGROV-1, > 100 µM (inactive). For the same molecule, the GI50 with NCI-H460 was 34 µM (inactive); in the assay on TK-10 it was 23.3 µM (inactive); in the assay with MOLT-4, 23.6 µM (inactive); with OVCAR-3, 31 µM (inactive); in the assay on NCI/ADR-RES it was 35.6 µM (inactive).

As for `Cc1c2oc3c(C)ccc(C(=O)NC4C(=O)NC(C(C)C)C(=O)N5CCCC5C(=O)N(C)CC(=O)N(C)C(Cc5cnc[nH]5)C(=O)OC4C)c3nc-2c(C(=O)NC2C(=O)NC(C(C)C)C(=O)N3CCCC3C(=O)N(C)CC(=O)N(C)C(Cc3cnc[nH]3)C(=O)OC2C)c(N)c1=O` (configuration not stated) (I: TVP[Sar][NMeH] / II: TVP[Sar][NMeH]; ester I:1-I:C, II:1-II:C; linker I:N-II:N via Actinocin(9to1); configuration not given here), the GI50 in the assay with SNB-19 is 45 µM (inactive); with ACHN it was 51.3 µM (inactive); with SF-295 it was 45.6 µM (inactive); in the assay on SR, 65.3 µM (inactive); in the assay on UACC-62, 30.3 µM (inactive); in the assay with SN12C, 57 µM (inactive). Besides, the GI50 in the assay on CAKI-1 is 38.1 µM (inactive); in the assay on BT-549, > 100 µM (inactive); with OVCAR-8, > 100 µM (inactive); in the assay with HCT-15 it was above 100 µM; with SNB-75, 66.8 µM (inactive); with IGROV-1, 47.3 µM (inactive). Also, the GI50 in the assay with NCI-H460 was 37.7 µM (inactive); in the assay on TK-10 it was > 100 µM (inactive); in the assay on MOLT-4, 37.3 µM (inactive); with OVCAR-3, > 100 µM (inactive); in the assay on SK-MEL-2 it was 26.3 µM (inactive); in the assay with NCI/ADR-RES it was > 100 µM (inactive).

Consider `Cc1ccc(S(=O)(=O)N/N=C2\CC(C)OC3=C2CCCCCC3)cc1` (configuration not stated), for which the GI50 in the assay on SNB-19 is 22.2 µM (inactive); in the assay with ACHN it was 18.5 µM (inactive); with SF-295, 15.8 µM (inactive); in the assay with DU-145, 19.4 µM (inactive); in the assay on SR, 17 µM (inactive); with UACC-62 it was 14.5 µM (inactive). For the same molecule, the GI50 in the assay on SN12C is 19.3 µM (inactive); in the assay with CAKI-1, 25.9 µM (inactive); with OVCAR-8, 21.2 µM (inactive); in the assay on SNB-75 it was 24.2 µM (inactive); with IGROV-1, 19.1 µM (inactive); in the assay on NCI-H460, > 100 µM (inactive). Moreover, the GI50 in the assay with TK-10 is 20.5 µM (inactive); in the assay with MOLT-4 it was 14.6 µM (inactive); in the assay on OVCAR-3, 19.7 µM (inactive); in the assay on NCI/ADR-RES, 20.5 µM (inactive).

`[N-]=[N+]=NC1=CC(=O)c2cccc3cccc1c23`: the GI50 with SNB-19 was 36.5 µM (inactive); in the assay on ACHN, 29.2 µM (inactive); in the assay on SF-295, 24.9 µM (inactive); with DU-145, 33.4 µM (inactive); in the assay with SR it was 67.3 µM (inactive); in the assay on UACC-62 it was 16.5 µM (inactive). Moreover, the GI50 in the assay with SN12C is 43.3 µM (inactive); with CAKI-1, 22.2 µM (inactive); in the assay on BT-549 it was 27.1 µM (inactive); in the assay with SNB-75, 13.5 µM (inactive); with IGROV-1, 15.8 µM (inactive); in the assay on NCI-H460, 31.1 µM (inactive). In addition, the GI50 was 44.4 µM (inactive) in the assay with TK-10, 10.7 µM (inactive) in the assay on MOLT-4 and 31.7 µM (inactive) in the assay on OVCAR-3.

Consider `CC(C)C1=CC23CCC4C(C)(C(=O)O)CCCC4(C)C2CC1C1C(=O)N(c2ccc(N4C(=O)C5C6CC7C8(C)CCCC(C)(C(=O)O)C8CCC7(C=C6C(C)C)C5C4=O)cc2)C(=O)C13` (configuration not stated), for which the GI50 in the assay with SNB-19 is 4.75 µM (inactive); in the assay on ACHN, 5.9 µM (inactive); with DU-145, 4.71 µM (inactive); in the assay on SR, 3.59 µM (inactive); in the assay on SN12C, 4.46 µM (inactive); in the assay on OVCAR-8, 4.89 µM (inactive). Also, the GI50 was 12.6 µM with HCT-15; 16.4 µM (inactive) in the assay on TK-10; 3.51 µM (inactive) in the assay on MOLT-4; 5.71 µM (inactive) with OVCAR-3; 13.5 µM (inactive) in the assay with SK-MEL-2.

With `Fc1ccccc1-c1nn2c(C34CC5CC(CC(C5)C3)C4)nnc2s1`, the GI50 in the assay on SNB-19, in the assay on ACHN, with SF-295, in the assay on DU-145, in the assay on SR and in the assay with UACC-62 was > 100 µM (inactive) throughout. Further, the GI50 in the assay on SN12C is > 100 µM (inactive); with CAKI-1, > 100 µM (inactive); in the assay on OVCAR-8 it was > 100 µM (inactive); in the assay with HCT-15, above 100 µM; in the assay on SNB-75 it was > 100 µM (inactive); with IGROV-1, > 100 µM (inactive). The GI50 with NCI-H460, in the assay with MOLT-4, in the assay with OVCAR-3, in the assay on SK-MEL-2 and in the assay with NCI/ADR-RES was > 100 µM (inactive) in each case.
